In patent publication US20250332300A1 (priority 2024, published 2025):
Where two headings read alike, the source gives them in different places. Starred links: 1 amine or outer side, 2 acyl side, 3 side chain; linkers in the order of their positions; H or OH if unused. Positions of bridges follow the written chain, without caps; N, C: chain ends. Non-standard residues stand in square brackets, D forms with d. Residues, ends and D or L forms follow the SMILES beside them. Trp(5-OH) = N[C@@H](Cc1c[nH]c2ccc(O)cc12)C(=O)O; NMePhe(4-F) = CN[C@@H](Cc1ccc(F)cc1)C(=O)O; isoSer(2S) = O=C([C@@H](O)CN[*:1])[*:2]; NMehPhe = CN[C@@H](CCc1ccccc1)C(=O)O; NMeE = CN[C@@H](CCC(=O)O)C(=O)O; Gly(cPr) = N[C@H](C(=O)O)C1CC1; NMeK = CN[C@@H](CCCCN)C(=O)O; NMeC = CN[C@@H](CS)C(=O)O; NMeS = CN[C@@H](CO)C(=O)O; Dap = NC[C@H](N)C(=O)O; X5 = O=C(C[*:2])[*:1]

Tests used:
Assay type in all cases: binding
[1] = target: T1, mouse HER2 (23-653) (Mus musculus, UniProt P70424); test: Surface plasmon resonance (SPR) for assessment of peptide affinity, mouse HER2; parameters: mouse HER2 (23-653) using a Cy5 labeled peptide as a probe; made in house; settings: SPR, mouse HER2 extracellular domain, 25° C., 1:1 binding model; read-out: moHER2-SPR-ONC KD
Excerpt: Each protein was immobilized either onto a SA sensorchip (Cytiva, BR-1005-31) or CM5 sensorchip (Cytiva, BR-1005-30) to a density of 800-2000 RU.

[2] = target: T2, human HER2 (23-652) (Homo sapiens, UniProt P04626); test: TR-FRET competition assay for peptide potency, human HER2; parameters: towards human HER2 (23-652) and mouse HER2 (23-653); made in house; host or cells: mammalian cells
[3] = target: T1, mouse HER2 (23-653); test: TR-FRET competition assay for peptide potency, mouse HER2; parameters: mouse HER2 (23-653) using a Cy5 labeled peptide as a probe; made in house; host or cells: mammalian cells; settings: TR-FRET competition with Cy5 labeled peptide probe, 0.1 nM mouse HER2, 24 h incubation; read-out: moHER2 TR-FRET IC50
[4] = target: T2, human HER2 (23-652); test: Surface plasmon resonance (SPR) for assessment of peptide affinity, human HER2; parameters: towards human HER2 (23-652) and mouse HER2 (23-653); made in house; settings: SPR, human HER2 extracellular domain, 25° C., 1:1 binding model; read-out: huHER2-SPR-ONC KD
Procedure, shortened: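 Binding kinetics fitted from sensorgrams with 280 s peptide association then 3000 s dissociation (30 uL/min), using HER2 (23-652) either directly immobilized (SA/CM5) or anti-Fc-captured; 3 M magnesium chloride used for regeneration.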

[5] = TR-FRET competition with Cy5 labeled peptide probe, 0.1 nM human HER2, 24 h incubation, read-out: huHER2 TR-FRET IC50

## CC(=O)N[C@H]1CCC(=O)NC[C@@H](C(=O)N(C)[C@@H](Cc2ccc(F)cc2)C(N)=O)N(C)C(=O)[C@H](C2CC2)NC(=O)[C@H](Cc2c[nH]c3ccccc23)NC(=O)[C@H](Cc2c[nH]c3ccc(O)cc23)NC(=O)[C@H](CO)N(C)C(=O)[C@H](CCc2ccccc2)N(C)C(=O)[C@H](CO)NC(=O)[C@H](Cc2ccc(O)cc2)NC1=O [Example A25, (3S,6S,9S,12S,15S,18S,21S,24S,27S)-9-((1H-indol-3-yl)methyl)-27-acetamido-N—((S)-1-amino-3-(4-fluorophenyl)-1-oxopropan-2-yl)-6-cyclopropyl-12-((5-hydroxy-1H-indol-3-yl)methyl)-24-(4-hydroxybenzyl)-15,21-bis(hydroxymethyl)-N,4,16,19-tetramethyl-5,8,11,14,17,20,23,26,30-nonaoxo-18-phenethyl-1,4,7,10,13,16,19,22,25-nonaazacyclotriacontane-3-carboxamide]
[1]
  Kd: 93 nM
[2]; read-out: huHER2 TR-FRET IC50
  IC50: 82 nM
[3]
  IC50: 162 nM

## CC(=O)NCCCC[C@H]1C(=O)N[C@@H](Cc2c[nH]c3ccc(O)cc23)C(=O)N[C@@H](Cc2c[nH]c3ccccc23)C(=O)N[C@@H]([C@H](C)O)C(=O)N(C)[C@H](C(=O)N(C)[C@@H](Cc2ccc(F)cc2)C(=O)N[C@@H](CCCCNC(=O)N2CCN(CC(=O)O)CC2)C(=O)N[C@@H](CCCCNC(=O)CN2CCN(CC(=O)O)CCN(CC(=O)O)CCN(CC(=O)O)CC2)C(N)=O)CNC(=O)CC[C@H](NC(C)=O)C(=O)N[C@@H](Cc2ccc(O)cc2)C(=O)N[C@@H](CO)C(=O)N(C)[C@@H](CCc2ccccc2)C(=O)N1C [Example C24]
[1]
  Kd: 9.3 nM
[2]; [5]
  IC50: 13 nM
[2]; value in parentheses (**): recalculated after further repetition, read-out: huHER2 TR-FRET IC50, recalculated value achieved after further repetition
  IC50: 11 nM
[3]
  IC50: 13 nM

## CC(=O)NCCCC[C@H]1C(=O)N[C@@H](Cc2c[nH]c3ccc(O)cc23)C(=O)N[C@@H](Cc2c[nH]c3ccccc23)C(=O)N[C@@H](C2CC2)C(=O)N(C)[C@H](C(=O)N(C)[C@@H](Cc2ccc(F)cc2)C(=O)N[C@@H](CCCCNC(=O)CCC(C(=O)O)N2CCN(CC(=O)O)CCN(CC(=O)O)CC2)C(N)=O)CNC(=O)CCC[C@H](NC(C)=O)C(=O)N[C@@H](Cc2ccc(O)cc2)C(=O)N[C@@H](CO)C(=O)N(C)[C@@H](CCc2ccccc2)C(=O)N1C (single isomer, unassigned) [Example C35]
[4]
  Kd: < 0.1 nM
[1]
  Kd: < 0.1 nM
[2]; [5]
  IC50: < 0.1 nM

## CC(=O)N[C@H]1CNC(=O)CSC[C@@H](C(=O)N(C)[C@@H](Cc2ccc(F)cc2)C(N)=O)N(C)C(=O)[C@H](C2CC2)NC(=O)[C@H](Cc2c[nH]c3ccccc23)NC(=O)[C@H](Cc2c[nH]c3ccc(O)cc23)NC(=O)[C@H](CO)N(C)C(=O)[C@H](CCc2ccccc2)N(C)C(=O)[C@H](CO)NC(=O)[C@H](Cc2ccc(O)cc2)NC1=O [Example A50, (3R,6S,9S,12S,15S,18S,21S,24S,27S)-9-((1H-indol-3-yl)methyl)-27-acetamido-N—((S)-1-amino-3-(4-fluorophenyl)-1-oxopropan-2-yl)-6-cyclopropyl-12-((5-hydroxy-1H-indol-3-yl)methyl)-24-(4-hydroxybenzyl)-15,21-bis(hydroxymethyl)-N,4,16,19-tetramethyl-5,8,11,14,17,20,23,26,30-nonaoxo-18-phenethyl-1-thia-4,7,10,13,16,19,22,25,29-nonaazacyclohentriacontane-3-carboxamide] (Ac-[Dap]YS[NMehPhe][NMeS][Trp(5-OH)]W[Gly(cPr)][NMeC][NMePhe(4-F)]-NH2; linker 1-9 via X5)
[4]
  Kd: 117 nM
[1]
  Kd: 122 nM
[3]
  IC50: 430 nM

## CC(=O)N[C@H]1CCCC(=O)NC[C@@H](C(=O)N(C)[C@@H](Cc2ccc(F)cc2)C(=O)N[C@@H](CCCCNC(=O)CN2CCN(CC(=O)O)CCN(CC(=O)O)CCN(CC(=O)O)CC2)C(N)=O)N(C)C(=O)[C@H](C2CC2)NC(=O)[C@H](Cc2c[nH]c3ccccc23)NC(=O)[C@H](Cc2c[nH]c3ccc(O)cc23)NC(=O)[C@H](CCCCNC(=O)CC(=O)O)N(C)C(=O)[C@H](CCc2ccccc2)N(C)C(=O)[C@H](CO)NC(=O)[C@H](Cc2ccc(O)cc2)NC1=O [Example C19]
[4]
  Kd: 5.5 nM
[1]
  Kd: 10 nM
[3]
  IC50: 7.6 nM

## CC(=O)N[C@H]1CCC(=O)NC[C@@H](C(=O)N(C)[C@@H](Cc2ccc(F)cc2)C(=O)N2CCC[C@H]2C(N)=O)N(C)C(=O)[C@H](C2CC2)NC(=O)[C@H](Cc2c[nH]c3ccccc23)NC(=O)[C@H](Cc2c[nH]c3ccc(O)cc23)NC(=O)[C@H](CO)N(C)C(=O)[C@H](CCc2ccccc2)N(C)C(=O)[C@H](CO)NC(=O)[C@H](Cc2ccc(O)cc2)NC1=O [Example A30, (3S,6S,9S,12S,15S,18S,21S,24S,27S)-9-((1H-indol-3-yl)methyl)-27-acetamido-N-((S)-1-((S)-2-carbamoylpyrrolidin-1-yl)-3-(4-fluorophenyl)-1-oxopropan-2-yl)-6-cyclopropyl-12-((5-hydroxy-1H-indol-3-yl)methyl)-24-(4-hydroxybenzyl)-15,21-bis(hydroxymethyl)-N,4,16,19-tetramethyl-5,8,11,14,17,20,23,26,30-nonaoxo-18-phenethyl-1,4,7,10,13,16,19,22,25-nonaazacyclotriacontane-3-carboxamide]
[4]
  Kd: 31 nM
[1]
  Kd: 30 nM
[3]
  IC50: 67 nM

## CC(=O)N[C@H]1CCCC(=O)NC[C@@H](C(=O)N(C)[C@@H](Cc2ccc(F)cc2)C(=O)N2CCC[C@H]2C(N)=O)N(C)C(=O)[C@H](C2CC2)NC(=O)[C@H](Cc2c[nH]c3ccccc23)NC(=O)[C@H](Cc2c[nH]c3ccc(O)cc23)NC(=O)[C@H](CO)N(C)C(=O)[C@H](CCc2ccccc2)N(C)C(=O)[C@H](CO)NC(=O)[C@H](Cc2ccc(O)cc2)NC1=O [Example A26, (3S,6S,9S,12S,15S,18S,21S,24S,27S)-9-((1H-indol-3-yl)methyl)-27-acetamido-N-((S)-1-((S)-2-carbamoylpyrrolidin-1-yl)-3-(4-fluorophenyl)-1-oxopropan-2-yl)-6-cyclopropyl-12-((5-hydroxy-1H-indol-3-yl)methyl)-24-(4-hydroxybenzyl)-15,21-bis(hydroxymethyl)-N,4,16,19-tetramethyl-5,8,11,14,17,20,23,26,31-nonaoxo-18-phenethyl-1,4,7,10,13,16,19,22,25-nonaazacyclohentriacontane-3-carboxamide]
[4]
  Kd: 11 nM
[1]
  Kd: 8.4 nM
[3]
  IC50: 13 nM

## COCCOCCOCCOCCOCCOCCOCCOCCOCCOCCOCCOCCC(=O)N[C@H]1CCCC(=O)NC[C@@H](C(=O)N(C)[C@@H](Cc2ccc(F)cc2)C(=O)N[C@@H](CCCCNC(=O)CN2CCN(CC(=O)O)CCN(CC(=O)O)CCN(CC(=O)O)CC2)C(N)=O)N(C)C(=O)[C@H](C2CC2)NC(=O)[C@H](Cc2c[nH]c3ccccc23)NC(=O)[C@H](Cc2c[nH]c3ccc(O)cc23)NC(=O)[C@H](CCCCNC(C)=O)N(C)C(=O)[C@H](CCc2ccccc2)N(C)C(=O)[C@H](CO)NC(=O)[C@H](Cc2ccc(O)cc2)NC1=O [Example C37]
[1]
  Kd: 0.3 nM
[2]; [5]
  IC50: 0.1 nM
[3]
  IC50: 0.4 nM

## CC(=O)NCCCC[C@H]1C(=O)N[C@@H](Cc2c[nH]c3ccc(O)cc23)C(=O)N[C@@H](Cc2c[nH]c3ccccc23)C(=O)N[C@@H](C2CC2)C(=O)N(C)[C@H](C(=O)N(C)[C@@H](Cc2ccc(F)cc2)C(N)=O)CCC(=O)NC[C@H](O)C(=O)N[C@@H](Cc2ccc(O)cc2)C(=O)N[C@@H](CO)C(=O)N(C)[C@@H](CCc2ccccc2)C(=O)N1C [Example A23, (3S,6S,9S,12S,15S,18S,21S,24S,30S)-6-((1H-indol-3-yl)methyl)-12-(4-acetamidobutyl)-N-((S)-1-amino-3-(4-fluorophenyl)-1-oxopropan-2-yl)-3-cyclopropyl-24-hydroxy-9-((5-hydroxy-1H-indol-3-yl)methyl)-21-(4-hydroxybenzyl)-18-(hydroxymethyl)-N,1,13,16-tetramethyl-2,5,8,11,14,17,20,23,27-nonaoxo-15-phenethyl-1,4,7,10,13,16,19,22,26-nonaazacyclotriacontane-30-carboxamide] ([isoSer(2S)]YS[NMehPhe][NMeK](Ac)[Trp(5-OH)]W[Gly(cPr)][NMeE][NMePhe(4-F)]-NH2; lactam N-9)
[1]
  Kd: 2.7 nM
[2]; read-out: huHER2 TR-FRET IC50
  IC50: 3 nM
[3]
  IC50: 5.5 nM
